Experiments:
Conditions in all cases: treatment: drug + dasatinib (fixed dose, not stated); 5 days
A498 [1] = test: AUC of dose-response viability curve, drug + dasatinib, normalised to DMSO (arbitrary (AUC of normalised viability)); higher = less growth inhibition
Method: (§1)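 Primary HTS combination arm: 8 RCC cell lines treated with 8 doses (up to 10 uM) of each library drug plus a fixed dose of dasatinib (dose not stated) for 5 days; viability read by CellTiter-Glo and normalised to DMSO. GI50 was fitted with XLfit, AUC is the area under the dose-response curve, and minimum viability is the lowest fraction of DMSO viability across doses.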

SN12C [2] = test: as above
Method: as §1

ACHN [3] = test: as above
Method: as §1

786-O [4] = test: as above
Method: as §1

769-P [5] = test: as above
Method: as §1

UO-31 [6] = test: as above
Method: as §1

TK-10 [7] = test: as above
Method: as §1

CAKI-1 [8] = test: as above
Method: as §1

A498 [9] = test: minimum viability across doses, drug + dasatinib, relative to DMSO (fraction); higher = less growth inhibition
Method: as §1

SN12C [10] = test: as above
Method: as §1

ACHN [11] = test: as above
Method: as §1

786-O [12] = test: as above
Method: as §1

769-P [13] = test: as above
Method: as §1

UO-31 [14] = test: as above
Method: as §1

TK-10 [15] = test: as above
Method: as §1

CAKI-1 [16] = test: as above
Method: as §1

A498 [17] = test: GI50 of drug in presence of dasatinib; higher = less potent
Method: as §1

SN12C [18] = test: as above
Method: as §1

ACHN [19] = test: as above
Method: as §1

786-O [20] = test: as above
Method: as §1

769-P [21] = test: as above
Method: as §1

UO-31 [22] = test: as above
Method: as §1

TK-10 [23] = test: as above
Method: as §1

CAKI-1 [24] = test: as above
Method: as §1

Structure (SMILES)	GI50 of drug (ACHN [19]) [nM]	GI50 of drug (786-O [20]) [nM]	AUC of dose-response viability curve (A498 [1])	AUC of dose-response viability curve (SN12C [2])	AUC of dose-response viability curve (ACHN [3])	AUC of dose-response viability curve (786-O [4])	AUC of dose-response viability curve (769-P [5])	AUC of dose-response viability curve (UO-31 [6])	AUC of dose-response viability curve (TK-10 [7])	AUC of dose-response viability curve (CAKI-1 [8])	minimum viability across doses (A498 [9])	minimum viability across doses (SN12C [10])	minimum viability across doses (ACHN [11])	minimum viability across doses (786-O [12])	minimum viability across doses (769-P [13])	minimum viability across doses (UO-31 [14])	minimum viability across doses (TK-10 [15])	minimum viability across doses (CAKI-1 [16])	GI50 of drug (A498 [17]) [nM]	GI50 of drug (SN12C [18]) [nM]	GI50 of drug (769-P [21]) [nM]	GI50 of drug (UO-31 [22]) [nM]	GI50 of drug (TK-10 [23]) [nM]	GI50 of drug (CAKI-1 [24]) [nM]
C#Cc1cccc(Nc2ncnc3cc(OCCOC)c(OCCOC)cc23)c1.Cl [Erlotinib HCl] + Cc1nc(Nc2ncc(C(=O)Nc3c(C)cccc3Cl)s2)cc(N2CCN(CCO)CC2)n1 [dasatinib]	206	8920	3.48	2.54	1.73	2.65	1.94	3.03	2.4	1.97	0.718	0.589	0.114	0.469	0.234	0.249	0.37	0.125	> 10000	> 10000	440	5540	2440	1060
CN1CC[C@H](c2c(O)cc(O)c3c(=O)cc(-c4ccccc4Cl)oc23)[C@H](O)C1.Cl [Flavopiridol hydrochloride] + Cc1nc(Nc2ncc(C(=O)Nc3c(C)cccc3Cl)s2)cc(N2CCN(CCO)CC2)n1 [dasatinib]	24.5	34.9	1.74	1.28	0.849	0.837	1.34	1.98	1.53	1.02	0.0115	0.00632	0.00412	0.00472	0.0135	0.00894	0.168	0.0304	171	106	86	252	119	33.6
Cc1c(CN2CCN(C(=O)[C@H](C)O)CC2)sc2c(N3CCOCC3)nc(-c3cnc(N)nc3)nc12 [GDC-0980 (RG7422)] + Cc1nc(Nc2ncc(C(=O)Nc3c(C)cccc3Cl)s2)cc(N2CCN(CCO)CC2)n1 [dasatinib]	25.5	81.1	2.4	1.45	1.12	1.47	1.44	2.18	1.47	1.36	0.17	0.0934	0.0521	0.00396	0.0451	0.00909	0.0374	0.02	658	119	80.4	268	103	102

Second part, led by results:

GI50 of drug (ACHN [19]) [nM]	GI50 of drug (786-O [20]) [nM]	Structure (SMILES)	AUC of dose-response viability curve (A498 [1])	AUC of dose-response viability curve (SN12C [2])	AUC of dose-response viability curve (ACHN [3])	AUC of dose-response viability curve (786-O [4])	AUC of dose-response viability curve (769-P [5])	AUC of dose-response viability curve (UO-31 [6])	AUC of dose-response viability curve (TK-10 [7])	AUC of dose-response viability curve (CAKI-1 [8])	minimum viability across doses (A498 [9])	minimum viability across doses (SN12C [10])	minimum viability across doses (ACHN [11])	minimum viability across doses (786-O [12])	minimum viability across doses (769-P [13])	minimum viability across doses (UO-31 [14])	minimum viability across doses (TK-10 [15])	minimum viability across doses (CAKI-1 [16])	GI50 of drug (A498 [17]) [nM]	GI50 of drug (SN12C [18]) [nM]	GI50 of drug (769-P [21]) [nM]	GI50 of drug (UO-31 [22]) [nM]	GI50 of drug (TK-10 [23]) [nM]	GI50 of drug (CAKI-1 [24]) [nM]
77.4	439	Cc1cc(Nc2cc(N3CCN(C)CC3)nc(/C=C/c3ccccc3)n2)n[nH]1.O=C(O)[C@H](O)[C@@H](O)C(=O)O [ENMD-2076] + Cc1nc(Nc2ncc(C(=O)Nc3c(C)cccc3Cl)s2)cc(N2CCN(CCO)CC2)n1 [dasatinib]	2.4	1.81	1.32	1.78	1.92	2.5	1.91	1.4	0.247	0.0567	0.0393	0.0877	0.131	0.0131	0.164	0.00949	1270	400	1000	886	396	194
6.5	24.5	CC(C)NC[C@@H](C(=O)N1CCN(c2ncnc3c2[C@H](C)C[C@H]3O)CC1)c1ccc(Cl)cc1 [GDC-0068] + Cc1nc(Nc2ncc(C(=O)Nc3c(C)cccc3Cl)s2)cc(N2CCN(CCO)CC2)n1 [dasatinib]	3.38	2.39	1.43	1.4	2.59	4.11	2.07	2.12	0.74	0.563	0.247	0.21	0.628	0.0701	0.292	0.311	> 10000	> 10000	> 10000	4910	1190	1750
4230	> 10000	OCCn1cc(-c2ccc3c(c2)CC/C3=N\O)c(-c2ccncc2)n1 [GDC-0879] + Cc1nc(Nc2ncc(C(=O)Nc3c(C)cccc3Cl)s2)cc(N2CCN(CCO)CC2)n1 [dasatinib]	3.55	2.62	2.12	2.39	2.36	3.45	3.05	2.86	0.804	0.686	0.354	0.568	0.605	0.894	0.716	0.738	> 10000	> 10000	> 10000	> 10000	> 10000	> 10000
82.6	225	CS(=O)(=O)N1CCN(Cc2cc3nc(-c4cccc5[nH]ncc45)nc(N4CCOCC4)c3s2)CC1 [GDC-0941] + Cc1nc(Nc2ncc(C(=O)Nc3c(C)cccc3Cl)s2)cc(N2CCN(CCO)CC2)n1 [dasatinib]	2.56	1.96	1.55	1.81	1.73	1.71	1.93	1.48	0.319	0.235	0.163	0.00743	0.111	0.0152	0.171	0.0678	3090	386	234	172	302	111

— the supplement of paper PMC8149375
